Reference: patent publication US20260152751A1, “INTERFERING RNA FOR INHIBITING JAK1 GENE EXPRESSION AND USE THEREOF” (Jenkem Technology Co., Ltd. (BEIJING), priority 2024, published 2026)

Columns and labels:
JAK1 gene = assay: qPCR of JAK1 expression in HaCaT cells transfected with modified siJAK1; type: cell-based, human; details: siRNA 50 nM, 48 h after transfection, JAK1 by qPCR, siNC = 100.00
Description: One day prior to transfection, 293T cells were seeded into a 24-well cell culture plate at 1×10^5 cells/well, and the culture medium was 500 μL of DMEM containing 10% FBS and 1% penicillin-streptomycin. Three replicate wells were made for each group. The culture plate was placed in an incubator with 5% CO2 at 37° C. for 24 h to allow the cells to adhere to the wall. On the day of transfection, the culture medium was changed to 450 μL of DMEM culture medium without antibiotics (containing 10% FBS). The siRNAs were diluted with 25 μL of Opti-MEM culture medium, and the control group was siNC at the same concentration; a Lipofectamine™RNAiMAX transfection reagent (Lip) was diluted with another 25 μL of Opti-MEM culture medium, and the mixture was left to stand at room temperature for 5 min; and the two dilutions were uniformly mixed and left to stand at room temperature for 5 min. 50 μL of the mixed solution described above was added to each well to obtain a final transfection volume of 500 μL, and the working concentration of the siRNA was 50 nM. After the cells were further cultured in an incubator with 5% CO2 at 37° C. for 48 h, the total RNA of the cells was extracted.
1) The RNA was reverse-transcribed into a cDNA template using the All-in-One First-Strand Synthesis MasterMix (LABLEAD, Cat. No.: F0202) kit. The reaction system was established according to Table 2, where all components were mixed uniformly and centrifuged to collect the liquid at the bottom of a tube, and the PCR program was run according to the settings of 37° C. for 2 min, 55° C. for 15 min, and 85° C. for 5 min, thereby giving the cDNA template.
2) The gene expression level was detected using the Taq SYBR® Green qPCR Premix (LABLEAD, Cat. No.: R0202) kit, and the qPCR system was established according to Table 3. All components were mixed uniformly and centrifuged to collect the liquid at the bottom of a tube, and the PCR program was run according to the following settings: • Step1: 95° C. 30 s; • Step2: 95° C. 10 s; • Step3: 60° C. 30 s+Plate Read; • Step4: Go to Step2, 40 times; • Step5: Melt Curve 65 to 95° C., increment 0.5° C., for 5 s+Plate Read.
GAPDH was used as an endogenous reference to detect the relative expression level of JAK1 gene, and the sequences of the primers used are as follows: […]
According to the method described in Example 2, human keratinocyte HaCaT cells were transfected with the modified siJAK1 at an siRNA working concentration of 50 nM. The expression level of JAK1 was detected by qPCR 48 h after the transfection. The controls included siNC and unmodified siJAK1 at the same concentration.

[1] = test system: IFN-γ-induced STAT1 phosphorylation; assay: Western blot of IFN-γ-induced STAT1 phosphorylation in L929 cells; type: cell-based, mouse; details: siRNA 50 nM, 48 h, IFN-γ 100 ng/mL 30 min, compared to siNC in Group 3, FIG. 17
Description: Mouse fibroblast L929 cells were seeded into a 6-well cell culture plate at 1×10^5 cells/well, and the culture medium was 2 mL of DMEM containing 10% FBS and 1% penicillin-streptomycin.
The cells were then harvested, and the total cellular proteins were extracted to detect the levels of phosphorylated STAT1 by Western blot.
1) The cells were lysed in an appropriate volume of pre-chilled RIPA lysis solution (supplemented with 1 mM PMSF, R1090, LABLEAD prior to use; containing protease and phosphatase inhibitors) for 3-5 min. The lysates were centrifuged at 14000 g at 4° C. for 5 min. The supernatant was carefully pipetted into a new 1.5 mL centrifuge tube. Protein concentrations were measured using the BCA method (PC0020, Solarbio). The samples were mixed with a loading buffer and incubated in a water bath kettle at 95° C. for 10 min.
2) The protein samples were separated by electrophoresis on 4-12% 12-well gradient gels (P41212, LABLEAD) using compatible electrophoresis buffer. […]
4) The PVDF membrane was trimmed based on the molecular weight of the protein and the marker, and blocked with 5% skim milk in TBST at room temperature for 1 h. […] After the membrane was washed again, chemiluminescent substrate (E1050, E1080, LABLEAD) was added, and signals were captured using the Bio-Red imaging system (ChemiDoc™ XRS+Imager) and analyzed using the accompanying software. […]

siJAK1-3283-m11: 2′-OMe and 2′-F modified siJAK1-3283; sense strand SEQ ID NO: 51, antisense strand SEQ ID NO: 55 (sense AGAACAUUGUGAAGUACAAUU; antisense UUGUACUUCACAAUGUUCUUU; 2'-OMe and 2'-F modifications; modified_base 20..21 OTHER; thymine; modified_base 1..2 OTHER; 2'-O-methyl; modified_base 3 OTHER; 2'-fluoro; modified_base 4 OTHER; modified_base 5 OTHER; modified_base 6 OTHER; modified_base 7 OTHER; modified_base 8 OTHER; modified_base 9..11 OTHER; modified_base 12 OTHER; modified_base 13 OTHER; modi; modified_base 1..3 OTHER; modified_base 7)
Relative expression level, Mean value (Mean) (JAK1 gene): 18.37
Inhibition of IFN-γ-induced STAT1 phosphorylation level by modified siJAK1 (Western blot) [1]: superior inhibitory effects
